Measured values published in ChEMBL document CHEMBL5729039, “Macrocyclic fluorine substituted indole derivatives” (2022).

Key:
[1] = molecular target: Apoptosis regulator Bcl-2 (Homo sapiens, UniProt P10415); assay: (§1) Biological Assay 2: BCL-2 Assay: In the assay 11 different concentrations of each compound (0.1 nM, 0.33 nM, 1.1 nM, 3.8 nM, 13 nM, 44 nM, 0.15 μM, 0.51 μM, 1.7 μM, 5.9 μM and 20 μM) were typically measured as duplicates in the same microtiter plate. For that, 100-fold concentrated DMSO solutions were prepared by serial dilutions (1:3.4) of a 2 mM stock solution in a clear, 384-well microtiter plate (Greiner Bio-One, Frickenhausen, Germany). From there, 50 nl were transferred in a dark test plate (Greiner Bio-One, Frickenhausen, Germany). The assay was initiated by addition of 2 μl of a 2,5-fold concentrated His-BCL-2 solution (usually for a 1 nM end concentration in 5 μl reaction volume) in aqueous assay buffer [50 mM Tris/HCl pH 7, 100 mM sodium chloride (NaCl), 50 mM potassium fluoride (KF), 0.005% Tween-20, 2 mM DTT, 0.1% bovine gamma globulin (BGG)] to the compounds in the assay plate. This was followed by a 10-minute incubation step at 22° C. for pre-equilibration of the putative complex between His-BCL-2 and the compounds. After that, 3 μl of a 1.67-fold concentrated solution (in assay buffer) consisting of Bad BH3-derived peptide (1 nM end concentration) and TR-FRET detection reagents [1.67 nM anti-His-Eu cryptate and 1.67 nM streptavidin-XL665 (both from Cisbio Bioassays, Codolet, France)], were added.
Sequence of Apoptosis regulator Bcl-2 (P10415 whole entry): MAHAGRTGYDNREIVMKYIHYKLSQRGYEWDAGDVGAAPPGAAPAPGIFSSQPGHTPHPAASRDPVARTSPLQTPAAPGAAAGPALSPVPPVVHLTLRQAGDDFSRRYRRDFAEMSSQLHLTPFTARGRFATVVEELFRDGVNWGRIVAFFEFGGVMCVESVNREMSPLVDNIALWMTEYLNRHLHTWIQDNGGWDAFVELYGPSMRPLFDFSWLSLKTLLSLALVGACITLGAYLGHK

Bcl-2-like protein 1 = Bcl-2-like protein 1 (Homo sapiens, UniProt Q07817); assay: as §1, with “Biological Assay: BCL-XL Assay: In” for “Biological Assay 2: BCL-2 Assay: In”, “2,5-fold concentrated His-BCL-XL solution (usually” for “2,5-fold concentrated His-BCL-2 solution (usually”, “(NaCl), […]” for “(NaCl), 50 mM potassium fluoride”, “complex between His-BCL-XL and the” for “complex between His-BCL-2 and the”
Sequence of Bcl-2-like protein 1 (Q07817 whole entry): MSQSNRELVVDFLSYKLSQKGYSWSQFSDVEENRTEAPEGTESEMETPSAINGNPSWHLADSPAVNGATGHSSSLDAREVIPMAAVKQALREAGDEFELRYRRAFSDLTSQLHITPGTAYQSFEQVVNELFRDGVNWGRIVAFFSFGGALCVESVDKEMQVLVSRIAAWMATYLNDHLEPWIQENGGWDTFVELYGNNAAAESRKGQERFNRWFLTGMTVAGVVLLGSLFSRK

IC50 [1] [µM] | IC50 (Bcl-2-like protein 1) [µM] | Compound
> 20 | > 20 | CCc1c2c(nn1C)COCCCCn1c(C(=O)O)c(CCCOc3ccc(F)c4ccccc34)c3ccc(F)c-2c31
> 20 | > 20 | CCc1c2c(nn1C)COCCCCn1c(C(=O)O)c(CCCOc3cccc4ccccc34)c3ccc(F)c-2c31
> 20 | > 20 | Cc1c2c(nn1C)COCCCCn1c(C(=O)O)c(CCCOc3cccc4ccccc34)c3ccc(F)c-2c31

Continued, compound first:

Compound | IC50 [1] [µM] | IC50 (Bcl-2-like protein 1) [µM]
CCc1nn(C)c2c1-c1c(F)ccc3c(CCCOc4cccc5cc(F)ccc45)c(C(=O)O)n(c13)CCCCOC2 | > 20 | > 20
Cc1c2c(nn1C)C[N+](C)(C)CCCCn1c(C(=O)O)c(CCCOc3cccc4ccccc34)c3ccc(F)c-2c31 | > 20 | > 20
Cc1c2c(nn1C)COCCCCn1c(C(=O)O)c(CCCOc3cccc4cc(F)ccc34)c3ccc(F)c-2c31 | > 20 | > 20
